{"source": "patent US8192962B2", "about": "“Processes for detecting toxic substances” (Daikin Industries, Ltd., priority 2001, dated 2012)", "system": "Genes belonging to other category", "assay": "DNA chip mRNA expression in yeast, genes belonging to other category (Table 9)", "assay_type": "cell-based, Saccharomyces cerevisiae S288C", "protocol": "Yeast (Saccharomyces cerevisiae S288C (α SUC2mal mel gap2 CUP1)) were incubated at 25° C. on YPD medium (yeast extract 1%, polypepton 2%, glucose 2%). One of toxic chemical substances was added to the cells at logarithmic growth phase, and the cells were further incubated for two hours. Cells were cultured without any chemical substance in the same condition, and were used as control. Concentrations of the chemical substances were defined to inhibit the growth of the yeast but not lead to death.\nAfter completion of the incubation, the culture was centrifuged to collect the cells. To the cells, sodium acetate buffer (50 mM sodium acetate, 10 mM EDTA, 1% SDS) was added, and the mixture was shaken at 65° C. for five minutes, followed by returning to room temperature, and obtaining the supernatant, of which the procedures were repeated two times. To the supernatant, ½ amount of a solution of phenol/chloroform was added, and the mixture was centrifuged to give a supernatant, which was added with an equal amount of chloroform, and the mixture was centrifuged to give a supernatant. To the supernatant, an equal amount of isopropanol containing 0.3 M sodium acetate was added, and the mixture was allowed to stand at room temperature for 30 minutes, after which the mixture was centrifuged to give a sediment of the whole RNAs. Seventy % ethanol was added to the sediment, and the mixture was again centrifuged to give a sediment, which was then dried and dissolved in water. mRNA was isolated from the whole RNAs as followings. In view of the fact that a poly A chain is attached to the 3′ terminus of mRNA, a polynucleotide having a poly T structure which was immobilized on the surface of latex beads was used to trap the mRNA, and then the mRNA was washed and eluted with spine column (Oligotex-dT30<Super>mRNA Purification Kit, Takara). Reverse transcription of the mRNA was conducted with a reverse transcriptase (Super Script II Reverse Transcriptase; catalogue No. 18064-014, GibcoBRL) using fluorescence-labeled nucleotides to give cDNAs that were introduced with Cy3-dUTP or Cy5-dUTP during the reverse transcription.\nThe labeled cDNAs were dissolved in TE buffer (10mM Tris-HCl/1 mM EDTA, pH8.0), and the solution was dropped on the DNA chip containing the whole genes of yeast (DNA Chip Research Inc. Japan) so that the cDNAs were hybridized on the DNA chip at 65° C. for over 12 hours. The fluoresces intensity of the DNA chip was read with a scanner, and the ratio relative to the fluorescence intensity resulting from the absence of chemical substance was estimated as the following, which is shown in Tables 1 to 9: […]", "data": [{"compound": "CN(C)C(=S)SSC(=S)N(C)C", "note": "[(10), Tetramethylthiuram disulfide]", "values": [{"measurement": "The level of expressed mRNA in the presence of chemical substance/The level of expressed mRNA in the absence of chemical substance", "setting": "yeast gene YDR505C", "value": 1.0}, {"measurement": "The level of expressed mRNA in the presence of chemical substance/The level of expressed mRNA in the absence of chemical substance", "setting": "yeast gene YDR510W", "value": 2.5}, {"measurement": "The level of expressed mRNA in the presence of chemical substance/The level of expressed mRNA in the absence of chemical substance", "setting": "yeast gene YDR515W", "value": 2.7}, {"measurement": "The level of expressed mRNA in the presence of chemical substance/The level of expressed mRNA in the absence of chemical substance", "setting": "yeast gene YEL012W", "value": 4.2}, {"measurement": "The level of expressed mRNA in the presence of chemical substance/The level of expressed mRNA in the absence of chemical substance", "setting": "yeast gene YEL042W", "value": 0.3}, {"measurement": "The level of expressed mRNA in the presence of chemical substance/The level of expressed mRNA in the absence of chemical substance", "setting": "yeast gene YEL066W", "value": 2.4}, {"measurement": "The level of expressed mRNA in the presence of chemical substance/The level of expressed mRNA in the absence of chemical substance", "setting": "yeast gene YER009W", "value": 1.0}, {"measurement": "The level of expressed mRNA in the presence of chemical substance/The level of expressed mRNA in the absence of chemical substance", "setting": "yeast gene YER012W", "value": 2.7}, {"measurement": "The level of expressed mRNA in the presence of chemical substance/The level of expressed mRNA in the absence of chemical substance", "setting": "yeast gene YER039C", "value": 0.8}, {"measurement": "The level of expressed mRNA in the presence of chemical substance/The level of expressed mRNA in the absence of chemical substance", "setting": "yeast gene YER076C", "value": 1.2}, {"measurement": "The level of expressed mRNA in the presence of chemical substance/The level of expressed mRNA in the absence of chemical substance", "setting": "yeast gene YER107C", "value": 0.5}, {"measurement": "The level of expressed mRNA in the presence of chemical substance/The level of expressed mRNA in the absence of chemical substance", "setting": "yeast gene YER130C", "value": 1.3}, {"measurement": "The level of expressed mRNA in the presence of chemical substance/The level of expressed mRNA in the absence of chemical substance", "setting": "yeast gene YFL022C", "value": 0.5}, {"measurement": "The level of expressed mRNA in the presence of chemical substance/The level of expressed mRNA in the absence of chemical substance", "setting": "yeast gene YFL028C", "value": 1.8}, {"measurement": "The level of expressed mRNA in the presence of chemical substance/The level of expressed mRNA in the absence of chemical substance", "setting": "yeast gene YFL043C", "value": 3.8}, {"measurement": "The level of expressed mRNA in the presence of chemical substance/The level of expressed mRNA in the absence of chemical substance", "setting": "yeast gene YFR004W", "value": 2.6}, {"measurement": "The level of expressed mRNA in the presence of chemical substance/The level of expressed mRNA in the absence of chemical substance", "setting": "yeast gene YFR014C", "value": 1.6}, {"measurement": "The level of expressed mRNA in the presence of chemical substance/The level of expressed mRNA in the absence of chemical substance", "setting": "yeast gene YFR050C", "value": 2.1}, {"measurement": "The level of expressed mRNA in the presence of chemical substance/The level of expressed mRNA in the absence of chemical substance", "setting": "yeast gene YGL158W", "value": 0.9}, {"measurement": "The level of expressed mRNA in the presence of chemical substance/The level of expressed mRNA in the absence of chemical substance", "setting": "yeast gene YGL180W", "value": 3.7}, {"measurement": "The level of expressed mRNA in the presence of chemical substance/The level of expressed mRNA in the absence of chemical substance", "setting": "yeast gene YGL185C", "value": 2.3}, {"measurement": "The level of expressed mRNA in the presence of chemical substance/The level of expressed mRNA in the absence of chemical substance", "setting": "yeast gene YGL229C", "value": 1.7}, {"measurement": "The level of expressed mRNA in the presence of chemical substance/The level of expressed mRNA in the absence of chemical substance", "setting": "yeast gene YGR120C", "value": 1.2}, {"measurement": "The level of expressed mRNA in the presence of chemical substance/The level of expressed mRNA in the absence of chemical substance", "setting": "yeast gene YGR136W", "value": 2.2}, {"measurement": "The level of expressed mRNA in the presence of chemical substance/The level of expressed mRNA in the absence of chemical substance", "setting": "yeast gene YGR189C", "value": 0.9}, {"measurement": "The level of expressed mRNA in the presence of chemical substance/The level of expressed mRNA in the absence of chemical substance", "setting": "yeast gene YGR213C", "value": 6.9}, {"measurement": "The level of expressed mRNA in the presence of chemical substance/The level of expressed mRNA in the absence of chemical substance", "setting": "yeast gene YGR248W", "value": 3.2}, {"measurement": "The level of expressed mRNA in the presence of chemical substance/The level of expressed mRNA in the absence of chemical substance", "setting": "yeast gene YGR257C", "value": 1.9}, {"measurement": "The level of expressed mRNA in the presence of chemical substance/The level of expressed mRNA in the absence of chemical substance", "setting": "yeast gene YHR004C", "value": 0.6}, {"measurement": "The level of expressed mRNA in the presence of chemical substance/The level of expressed mRNA in the absence of chemical substance", "setting": "yeast gene YHR071W", "value": 7.2}, {"measurement": "The level of expressed mRNA in the presence of chemical substance/The level of expressed mRNA in the absence of chemical substance", "setting": "yeast gene YHR109W", "value": 1.8}, {"measurement": "The level of expressed mRNA in the presence of chemical substance/The level of expressed mRNA in the absence of chemical substance", "setting": "yeast gene YHR136C", "value": 2.0}, {"measurement": "The level of expressed mRNA in the presence of chemical substance/The level of expressed mRNA in the absence of chemical substance", "setting": "yeast gene YHR139C", "value": 46.6}, {"measurement": "The level of expressed mRNA in the presence of chemical substance/The level of expressed mRNA in the absence of chemical substance", "setting": "yeast gene YHR142W", "value": 0.9}, {"measurement": "The level of expressed mRNA in the presence of chemical substance/The level of expressed mRNA in the absence of chemical substance", "setting": "yeast gene YHR161C", "value": 2.0}, {"measurement": "The level of expressed mRNA in the presence of chemical substance/The level of expressed mRNA in the absence of chemical substance", "setting": "yeast gene YIL034C", "value": 1.3}, {"measurement": "The level of expressed mRNA in the presence of chemical substance/The level of expressed mRNA in the absence of chemical substance", "setting": "yeast gene YIL123W", "value": 0.2}, {"measurement": "The level of expressed mRNA in the presence of chemical substance/The level of expressed mRNA in the absence of chemical substance", "setting": "yeast gene YIL140W", "value": 0.6}, {"measurement": "The level of expressed mRNA in the presence of chemical substance/The level of expressed mRNA in the absence of chemical substance", "setting": "yeast gene YJL035C", "value": 1.4}, {"measurement": "The level of expressed mRNA in the presence of chemical substance/The level of expressed mRNA in the absence of chemical substance", "setting": "yeast gene YJL059W", "value": 1.6}, {"measurement": "The level of expressed mRNA in the presence of chemical substance/The level of expressed mRNA in the absence of chemical substance", "setting": "yeast gene YJL073W", "value": 0.7}, {"measurement": "The level of expressed mRNA in the presence of chemical substance/The level of expressed mRNA in the absence of chemical substance", "setting": "yeast gene YJL089W", "value": 3.9}, {"measurement": "The level of expressed mRNA in the presence of chemical substance/The level of expressed mRNA in the absence of chemical substance", "setting": "yeast gene YJL116C", "value": 2.6}, {"measurement": "The level of expressed mRNA in the presence of chemical substance/The level of expressed mRNA in the absence of chemical substance", "setting": "yeast gene YJL141C", "value": 1.3}, {"measurement": "The level of expressed mRNA in the presence of chemical substance/The level of expressed mRNA in the absence of chemical substance", "setting": "yeast gene YJR004C", "value": 0.7}, {"measurement": "The level of expressed mRNA in the presence of chemical substance/The level of expressed mRNA in the absence of chemical substance", "setting": "yeast gene YJR049C", "value": 1.4}]}]}
